System: duration of immobility
Experiment: Porsolt's Forced Swim Test (FST) in the mouse
Type: in vivo
Settings: 32 mg/kg p.o., −24, −5, −1 h
Protocol: Mice were individually placed in a cylinder (Height=24.5 cm, Diameter=19.5 cm) containing 13.5 cm water (22° C.) from which they could not escape. The mice were placed in the water for 6 min and the duration of immobility during the last 4 min was measured. Ten mice were studied per group. Rosemary extract (dissolved in corn oil) was evaluated at 272, 409 and 545 mg/kg body weight, administered orally 24, 5, and 1 h before the test, and compared with a vehicle-treated control group. Imipramine (32 mg/kg, p.o.; dissolved in distilled water), administered under the same experimental conditions, was used as reference substance. Data were analysed by comparing all groups using one-way Analysis of Variance (ANOVA) and the Bonferroni post-hoc test.

For `CN(C)CCCN1c2ccccc2CCc2ccccc21` [Imipramine, imipramine], the “DURATION OF IMMOBILITY % change from control” value was −59% and the “DURATION OF IMMOBILITY (as % total test time) mean ± S.D.” value was 17.75 ± 9.92 % total test time.

— patent US20120183635A1, “ROSEMARY EXTRACTS, DIETARY AND PHARMACEUTICAL COMPOSITIONS CONTAINING THEM AND THEIR USES” (DSM IP ASSETS B.V., priority 2006, published 2012)
